Results on two substances are retold here after patent publication US6673902B2, “Cyclin D binding factor, and uses thereof” (St. Jude Children's Research Hospital, priority 1996, dated 2004).

The subject of data set [1] is DMP1-responsive promoter (pGL2BS2). Description: Transactivation of luciferase reporter plasmid under control of a DMP1-responsive promoter in NIH-3T3 fibroblasts. Particulars: expression vector 3 μg/10 ml, pGL2BS2 8 μg/10 ml; vector without insert set to 1.0. Format: cell-based, mouse. The source says:
Coexpression of a D-type cyclin with DMP1 overrides the ability of DMP1 to transactivate a luciferase gene under the control of an artificial DMP1-responsive promoter (Table 4), as well as the ability of DMP1 to inhibit cell growth.

A further data set concerns 32P-BS2 Probe. Description: EMSA with 32P-BS2 probe on transfection lysates of NIH-3T3 fibroblasts. Format: binding. To be noted: 32P labeled BS2 probe. The protocol: (§1) Double-stranded oligonucleotides containing potential DMP1 binding sites (BS1 and BS2) and mutated versions (M1-M4) (FIG. 5B) are end-labeled with ^32P using the Klenow fragment of DNA polymerase and α-^32P-dATP (6000 Ci/mmol; Dupont NEN) (8). Nuclear extracts from mouse NIH-3T3 or CTLL cells are prepared with buffer containing 0.4 M NaCl (2). Mammalian cell extracts (15 μg protein) or Sf9 lysates (corresponding to 5×10^2 infected cells) containing ˜4 ng recombinant DMP1 are mixed with 3 ng of ^32P-labeled probe (1×10^5 cpm) in 15 ul Binding buffer containing 2.5 μg of poly(dI-dC) and 2.5 μg BSA and incubated at 4° C. for 30 minutes. For competition experiments, the indicated amounts of unlabeled oligonucleotides are added to the reactions before addition of the labeled probe. In some experiments, a bacterially produced GST-Ets2 fusion protein containing the complete Ets2 DNA-binding domain (10) is used in place of Sf9 extracts containing recombinant DMP1. Protein-DNA complexes are separated on nondenaturing 4% polyacrylamide gels as described (8). Where indicated, antiserum to DMP1 together with 2.5 μg salmon testis DNA (Sigma; used to reduce nonspecific DNA binding activity caused by serum addition) is preincubated with extracts for 30 minutes at 4° C. prior to initiation of binding reactions. Immune complexes are either removed by adsorption to protein A-Sepharose beads (immunodepletion experiments) or are allowed to remain (“supershift” experiments).
A series of deletion mutants and a point mutant of DMP1, K319E, (in which the lysine at position 319 of SEQ ID NO:1 is replaced by a glutamic acid) were prepared and used to determine the DNA-binding domain of DMP1 by electrophoretic mobility shift assay (EMSA) using a ^32P labeled BS2 probe. The DNA-binding domain of DMP1 was mapped to a central region containing the three MYB repeats plus adjacent flanking sequences: a BstEII to NcoI fragment encoding amino acids 87-458 of SEQ ID NO:1 (Table 1). This region alone was necessary and sufficient for DNA binding.
(In EMSA bound probe runs differently from free probe, usually more slowly.)

A further data set has as its system NIH-3T3 fibroblasts. The data set can be described thus: BrdU incorporation in transfected NIH-3T3 fibroblasts. It counts as cell-based, mouse. On the procedure:
BrdU is added to NIH-3T3 cells after the experimental treatment and the cells were incubated for twenty-two hours in DMEM plus 10% fetal calf serum (FCS). The cells were then stained for DMP1 expression and/or BrdU incorporation. The nucleic acids encoding the wildtype DMP1 and the deletion and point mutants had been constructed so as to express the corresponding proteins with Flag-tags. To stain for DMP1 expression, mouse monoclonal anti-Flag antibodies (12 μg/ml) [Kodak] were incubated with the cells in TBS-Ca^+ without FCS for one hour at room temperature. After washing the cells, horse anti-mouse biotinylated antibodies at a 1:500 dilution were added to the cells in TBS plus 5% FCS and incubated for 30 minutes at room temperature. After washing the cells, strefptavidin linked to Texas red [Amersham] was then added at a 1:500 dilution for 30 minutes at room temperature. To stain for BrdU incorporation, 1.5N HCl was added to the cells for ten minutes at room temperature to denature the DNA. After washing the cells, sheep anti-BrdU antibodies [Fitzgerald] at a 1:12 dilution were then added for one hour at room temperature. After washing the cells, rabbit FITC-conjugated anti-sheep antibodies [Vector] at 1:100 dilution was then incubated for 30 minutes at room temperature.
NIH-3T3 cells were placed on cover slides and transfected with the expression vectors (pFLEX-DMP1 or the corresponding vector containing the deletion or point mutants of mouse DMP1 plus or minus cyclin D or E) for fourteen hours. The cells were then washed twice and DMEM plus 10% FCS was added and the cells incubated for eight hours. Half of the cells were starved by washing twice with 0.1% FCS, and then incubated for twenty-four hours in 0.1% FCS in DMEM. The remaining cells were not starved but were incubated for twenty-four hours in DMEM plus 10% FCS without washing. BrdU was added to both groups of cells and the cells were incubated for twenty-two hours in DMEM plus 10% FCS.
The cells were then restimulated to enter the cell cycle synchronously with DMEM plus 10% FCS. At the same time, 5′-Bromo-2′ Deoxyuridine (BrdU) was added to the medium. The cells were fixed 22 hours later in methanol acetone (1:1) and stained for BrdU incorporation and DMP1 expression as described in the Materials and Methods.

Data set [2] has as its system 281 bp ARF promoter fragment. The data set can be described thus: Transactivation of ARF promoter-luciferase reporter in NIH-3T3 cells. Particulars: NIH-3T3, 281 bp ARF promoter fragment-luciferase. It counts as cell-based, mouse. The protocol:
Transactivation assays. NIH-3T3 cells were transfected with 4 μg of pGL2-ARFpro BamHI or its DMP1 binding site mutant, with or without increasing amount of pFLEX-DMP1, pEVRFO-Ets1, pCMV-Ets2, pRcRSV-Elfl, pdEB-Fli1, p(IEB-EWS-Fli1 or pCMV-E2F-1 (89-437), and 4 μg β-actin SEAP control vectors [Inoue and Sherr, Mol. Cell. Biol. 18: 1590-1600 (1998); Inoue et al., J. Biol. Chem. 273:29188-29194 (1998); Davis and Roussel, Gene 171:265-269 (1996); Baily et al., Mol. Cell. Biol. 14:3230-3241 (1994)]. Transfections and normalization of luciferase levels with internal control SEAP levels were performed as described [Inoue and Sherr, Mol. Cell. Biol. 18:1590-1600 (1998)].
Similarly, DMP1 deletion mutants defective in transactivation [Inoue and Sherr, Mol. Cell. […] Mutation of the DMP1 binding site within the ARF promoter [changing CCCGGATGC, (SEQ ID NO:33) to CCCGTCGAC, (SEQ ID NO:42)] also completely abolished transactivation by wild-type DMP1 (FIG. 14C, mutant reporter). Therefore, sequences within the −189 to −181 ARF promoter segment were the only ones responsible for DMP1-mediated transactivation. Although Ets1 could bind to a 23 base pair oligonucleotide containing the DMP1 consensus site (FIG. 14B), several Ets proteins were unable to induce significant reporter gene expression from the more complex 281 base pair ARF promoter (FIG. 14C). […]
(In general: A reporter such as luciferase makes a cellular process visible.)

Data set [3] concerns the target T1, recombinant DMP1 (Mus musculus, UniProt Q8CE22).
T1 construct: made in house; host or cells: Sf9 insect cells, pAcYM1 baculovirus vector; used as crude lysate (~4 ng DMP1 per reaction)
T1 sequence (Q8CE22 1-761): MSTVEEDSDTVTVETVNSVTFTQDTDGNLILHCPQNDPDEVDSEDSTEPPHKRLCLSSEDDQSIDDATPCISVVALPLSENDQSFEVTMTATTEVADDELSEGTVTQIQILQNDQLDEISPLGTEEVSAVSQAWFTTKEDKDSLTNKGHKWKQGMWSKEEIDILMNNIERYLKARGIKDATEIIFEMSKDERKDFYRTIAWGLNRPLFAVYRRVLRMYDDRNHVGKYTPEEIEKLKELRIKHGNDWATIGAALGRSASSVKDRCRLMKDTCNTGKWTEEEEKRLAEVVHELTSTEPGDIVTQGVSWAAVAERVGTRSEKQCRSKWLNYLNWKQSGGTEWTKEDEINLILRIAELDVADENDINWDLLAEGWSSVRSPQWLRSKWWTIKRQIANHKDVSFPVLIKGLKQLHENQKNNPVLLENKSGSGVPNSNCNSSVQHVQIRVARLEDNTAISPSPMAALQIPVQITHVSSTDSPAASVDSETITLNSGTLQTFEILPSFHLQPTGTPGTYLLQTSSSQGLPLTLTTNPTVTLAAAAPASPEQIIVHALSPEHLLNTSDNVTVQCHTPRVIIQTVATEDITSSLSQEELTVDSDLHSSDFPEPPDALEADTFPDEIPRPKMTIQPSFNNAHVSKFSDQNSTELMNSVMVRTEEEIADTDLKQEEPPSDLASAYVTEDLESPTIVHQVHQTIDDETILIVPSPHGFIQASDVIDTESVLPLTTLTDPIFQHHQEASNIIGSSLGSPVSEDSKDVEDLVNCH
The data set can be described thus: EMSA competition, recombinant DMP1 and 281 base pair ARF promoter fragment. Format: binding. Particulars: 200-fold excess of unlabelled oligonucleotide. On the procedure:
Electrophoretic mobility shift assay (EMSA). Recombinant DMP1 protein was prepared in Sf9 cells [Hirai and Sherr, Mol. Cell. Biol. 16:6457-6467 (1996)]. Purified bacterial proteins representing the Ets1 DNA binding domain or full-length Ets1 [Inoue, et al., J. Biol. Chem. 273:29188-29194 (1998)] were used. EMSAs were performed [Inoue and Sherr, Mol. Cell. Biol. 18:1590-1600 (1998)] using either a 281-bp genomic fragment (−225 to +56) or double-stranded oligonucleotides containing the DMP1/Ets site obtained by annealing oligonucleotide 5′-[…]-3′ (sense strand SEQ ID NO:41); DMP1/Ets consensus sequence underlined) with a complementary antisense strand. For competition experiments, a 200-fold excess of unlabelled oligonucleotides was added to reaction mixtures before the probe. To verify the identity of the proteins in shifted complexes, reaction mixtures were incubated with control nonimmune rabbit serum (NRS), serum AF [Hirai and Sherr, Mol. Cell. Biol. 16:6457-6467 (1996)] and M-10 (both to DMP1 carboxylterminal epitopes), S-19 (DMP1 N-terminus), or C-20 (Ets1 C-terminus) before electrophoresis. M-10, S-19, and C-20 were from Santa Cruz Biotechnology.
The nucleotide sequence of the proximal promoter region of the murine ARF gene relative to the transcription initiation site as defined by S1 mapping analysis was determined (FIG. 13). […]

The target of the next data set is T2, GST-Ets2 fusion protein (Homo sapiens, UniProt P15036).
T2 construct: made in house; host or cells: bacteria
T2 sequence (P15036 363-443 limits assumed): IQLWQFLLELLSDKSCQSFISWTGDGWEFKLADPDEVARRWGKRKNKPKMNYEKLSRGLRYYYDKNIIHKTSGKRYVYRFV
The data set can be described thus: EMSA competition with bacterial GST-Ets2 fusion protein. Format: binding. Particulars: excess unlabeled oligonucleotide. The protocol:
as §1
(§2) Using electrophoretic mobility shift assays (EMSA) performed after mixing a titrated excess (3 ng) of ^32P-end labeled BS1 probe with Sf9 lysates producing DMP1 (˜4 ng recombinant protein per reaction), a BS1-containing protein complex is detected that was competed with an excess of unlabeled BS1 oligonucleotide but not with mutant oligonucleotides M1 and M2 (FIG. 6A). […] More subtle mutations within this region may be tolerated, because high concentrations of M4 competed for BS1 binding to both Ets2 and DMP1 in subsequent studies (FIG. 5B and see below). DMP1 also binds a BS2 probe, and the binding is competed by excess BS2 or BS1 (FIG. 6B). In agreement with the site selection frequencies (FIG. 5A), binding of ^32P-BS1 under equivalent conditions was competed more efficiently by excess unlabeled BS1 than by BS2 (FIG. 6B). […] In agreement, Ets2 binding to BS1 could be competed with excess unlabeled BS1 and M3, but not by BS2 (FIG. 6C). Therefore, although both DMP1 and Ets2 can each bind to BS1 sequences, their exclusive interactions with BS2 and M3, respectively, help to distinguish DMP1 and Ets binding activities (summarized in FIG. 5B).

Data set [4] has as its target T1, recombinant DMP1. Description: EMSA competition with Sf9 lysates producing recombinant DMP1. It counts as binding. Particulars: excess unlabeled oligonucleotide. On the procedure:
as §1, §2

In the case of “M11: DMP1 point mutant, lysine at position 319 of SEQ ID NO:1 replaced by glutamic acid”, in data set [1], the “Luciferase Activity” value is reported as 1.1. In addition, the “affinity for the DNA probe relative to wildtype” value in the data set with 32P-BS2 Probe was “about 2%”. Also, the “% Cells BrdU Positive” value in the data set on NIH-3T3 fibroblasts (Table 2, expression vector 3 μg/10 ml) worked out at 48%. In addition, the “% Cells BrdU Positive in 10% FCS” value in the data set with NIH-3T3 fibroblasts (nonstarved cells, additive None, labeled 22 hours) turned out to be 54%. Also, in the data set on NIH-3T3 fibroblasts (starved cells, additive None, labeled 22 hours), the “% Cells BrdU Positive in 0.1% FCS” value is given as 47%. Further, the “ARF promoter reporter gene expression” value in data set [2] is recorded as “had no activity”.

For “oligonucleotide BS2: probe/competitor BS2, SEQ ID NO:11, DMP1 binding site CCCGTATGT with GTA core (DNA AATTGACCCGTATGTAGGTACGC; chemistry not given here)”, the “competition for DMP1 binding to the 281 base pair ARF promoter fragment” value with recombinant DMP1 [3] is reported as “completely inhibited”. For the same substance, the “competition for BS1 binding to Ets2” value with GST-Ets2 fusion protein is given as “not”. Further, in the data set with recombinant DMP1 [4], the “competition for 32P-BS1 probe binding to DMP1” value is reported as “competed” and the “competition for BS2 probe binding to DMP1” value is “competed”.
